In patent US12209261B2, “Media for the expression of recombinant vitamin K-dependent proteins” (CSL Behring Lengnau AG, priority 2015, dated 2025):

How the values were obtained:
[1] = system: CHO cells expressing FVII; test: Determination of cell growth and viability (viable cell density, flow cytometry with propidium iodide); format: cell-based, Chinese Hamster; settings: for impact on viable cell density (VCD): summary in description, supplement present in cell culture medium, FIGS. 1A-8A
Experimental: (§1) Chinese Hamster Ovary cell line that expresses recombinant human Factor VII fusion protein was created using the GS expression system (Lonza). These cells were maintained in commercially available CD-CHO AGT medium (Invitrogen) supplemented with 50 μg/L reduced menadione sodium bisulfite (rMSB) (Richman), 25 μM methionine sulfoximine (MSX) (Sigma) and 1 mg/L insulin (Novo Nordisk). Cells were grown in shake flasks maintained at 37° C. with 8% CO2 atmosphere and subcultured every 3 days to 3×10^5 cells/mL.
Cells from the exponential growth phase of the cultures (at the end of regular 3-day passages) were used for the experiments. The cells were centrifuged, appropriate amount of spent media removed and cell pellets were resuspended in remaining spent media to a cell concentration of 3×10^6 cells/mL. 50 μL of this cell suspension was used to inoculate each well of a polypropylene V-bottom square 96-deepwell plate (Corning) containing 450 μL of a cell culture media based on DMEM/F12 supplemented with different levels of reduced L-glutathione (Sigma). The reduced L-glutathione concentration ranges tested were 0.01-15 mM with a corresponding reduced L-glutathione-free negative control. All cultures contained 213 μg/L rMSB to support appropriate cellular processing of Factor VII. All liquid handling steps were performed using a Tecan Freedom EVO® 200 robotic platform.
(§2) Culture plates were sealed with a breathable membrane (Corning) to maintain sterility and cultures were maintained at 37° C. with 8% CO2 atmosphere in a shaker incubator (Kuhner) operating at 350 rpm with an oribital diameter of 25 mm.
The cell density and viability in the culture were determined offline from a sample of culture obtained at day 5 and day 7 (counted from inoculation of the culture) using a MACSQuant® Analyzer 10 flow cytometer (Miltenyi Biotec), utilizing propidium iodide (Miltenyi Biotec) for viability staining. […]
The cell density and viability were determined as described for Example 1.

[2] = system: recombinant human Factor VII fusion protein; test: Recombinant Factor VII chromogenic activity in culture supernatants (COASET Factor VII kit); format: cell-based; settings: for effect on chromogenic activity of FVII: supernatant at days 7, 9 and 10; for impact on yield and/or activity of FVII: summary in description, supplement present in cell culture medium during FVII expression, FIGS. 1B-8C
Experimental: as §1
Cells from the exponential growth phase of the cultures (at the end of regular 3-day passages) were used for the experiments. The cells were centrifuged, appropriate amount of spent media removed and cell pellets were resuspended in remaining spent media to a cell concentration of 3×10^6 cells/mL. 50 μL of this cell suspension was used to inoculate each well of a polypropylene V-bottom square 96-deepwell plate (Corning) containing 450 μL of a cell culture media based on DMEM/F12 supplemented with different levels of reduced L-glutathione (Sigma). […] All cultures contained 213 μg/L rMSB to support appropriate cellular processing of Factor VII. All liquid handling steps were performed using a Tecan Freedom EVO® 200 robotic platform.
as §2
Recombinant Factor VII chromogenic activity in the cultures were determined from serially diluted supernatant samples obtained at days 7, 9 and 10 (counted from inoculation of the culture) using a commercially available chromogenic kit COASET Factor VII kit (Chromogenix). The assay was adapted for use with the SYSMEX® CS-5100 automated hemostasis analyzer (Siemens Healthcare) and performed according to manufacturers' instructions.
Cells from the exponential growth phase of the cultures (at the end of regular 3-day passages) were used for the experiments. The cells were centrifuged, appropriate amount of spent media removed and cell pellets were resuspended in remaining spent media to a cell concentration of 3×10^6 cells/mL. 50 μL of this cell suspension was used to inoculate each well of a polypropylene V-bottom square 96-deepwell plate (Corning) containing 450 μL of a cell culture media based on DMEM/F12 supplemented with different levels of alpha-ketoglutaric acid (Sigma), malic acid (Sigma), succinic acid (Sigma), oxaloacetic acid (Sigma), fumaric acid (Sigma), citric acid (Sigma) or sodium pyruvate (Sigma). […]
Recombinant Factor VII chromogenic activity in the cultures was determined as described for Example 1.

Row | Structure (SMILES) | effect on viable cell density ([1]; Example 1, reduced L-glutathione 0.01-15 mM in DMEM/F12-based medium, day 5 and day 7, at most concentrations tested, FIG. 1A) | impact on viable cell density (VCD) [1] | effect on chromogenic activity of FVII ([2]; Example 1, reduced L-glutathione 0.01-15 mM, FIGS. 1B and 1C) | impact on yield and/or activity of FVII [2] | effect on chromogenic activity of FVII ([2]; Example 2, TCA intermediates 0.06-60 mM, sodium pyruvate 0.01-10 mM, FIGS. 2B-8C)
1 | N[C@@H](CCC(=O)N[C@@H](CS)C(=O)NCC(=O)O)C(=O)O [L-glutathione, (2S)-2-amino-5-[[(2R)-1-(carboxymethylamino)-1-oxo-3-sulfanylpropan-2-yl]amino]-5-oxopentanoic acid] | no effect on the viable cell density | only minor impact on the viable cell density | increases chromogenic activity of FVII | enhances yield and/or activity of FVII | 
2 | CC(=O)C(=O)[O-].[Na+] [Sodium pyruvate, sodium pyruvate, reference compound] |  | only minor impact on the viable cell density |  | no impact on yield and/or activity of FVII | no effect on the chromogenic activity of FVII
